Data: ChEMBL document CHEMBL1201862, “PubChem BioAssay data set” (2004)
The source made the active and inactive calls.

Key:
Coagulation factor XII = molecular target: T1, Coagulation factor XII (Homo sapiens, UniProt P00748); assay: Factor XIIa Dose Response Confirmation from Single Well HTS. [Related pubchem assays (depositor defined):AID701]; format: functional
T1 sequence (P00748 whole entry): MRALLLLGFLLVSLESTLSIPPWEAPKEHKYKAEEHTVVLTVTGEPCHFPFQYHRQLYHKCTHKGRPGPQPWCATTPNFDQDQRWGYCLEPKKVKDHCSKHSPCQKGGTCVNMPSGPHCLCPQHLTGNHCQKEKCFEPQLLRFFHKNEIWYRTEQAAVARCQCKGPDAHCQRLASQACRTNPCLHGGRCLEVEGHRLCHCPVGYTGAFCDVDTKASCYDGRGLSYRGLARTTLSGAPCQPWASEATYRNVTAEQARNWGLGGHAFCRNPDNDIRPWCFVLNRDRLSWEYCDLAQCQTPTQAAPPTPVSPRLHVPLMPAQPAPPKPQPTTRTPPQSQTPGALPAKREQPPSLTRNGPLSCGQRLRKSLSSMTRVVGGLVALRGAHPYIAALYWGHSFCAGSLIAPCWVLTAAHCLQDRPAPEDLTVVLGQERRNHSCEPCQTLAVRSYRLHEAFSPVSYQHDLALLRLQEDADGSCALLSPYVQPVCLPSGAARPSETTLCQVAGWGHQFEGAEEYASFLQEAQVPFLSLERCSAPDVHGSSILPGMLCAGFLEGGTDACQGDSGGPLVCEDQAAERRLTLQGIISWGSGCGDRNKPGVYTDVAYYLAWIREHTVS

[1] = Shn3 3'UTR reporter inhibitors, dose response, cell-based, Clone20 osteoblasts, firefly luciferase, cherry-picked (AID 624132); format: functional;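 further: firefly luciferase luminescence from reporter carrying the Shn3 3'UTR in osteoblasts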
Genome polyprotein = Genome polyprotein (dengue virus type 2, UniProt P29990); assay: Dengue-2 NS5 methyltransferase inhibitors, primary screen, biochemical, confirmation dose response (AID 588689); format: functional
[2] = molecular target: T2, Replicative DNA helicase DnaB (Mycobacterium tuberculosis, UniProt P9WMR3); assay: DnaB intein splicing inhibitors, dose response, biochemical, cell-free fluorescence (AID 449749); format: functional
T2 sequence (P9WMR3 whole entry): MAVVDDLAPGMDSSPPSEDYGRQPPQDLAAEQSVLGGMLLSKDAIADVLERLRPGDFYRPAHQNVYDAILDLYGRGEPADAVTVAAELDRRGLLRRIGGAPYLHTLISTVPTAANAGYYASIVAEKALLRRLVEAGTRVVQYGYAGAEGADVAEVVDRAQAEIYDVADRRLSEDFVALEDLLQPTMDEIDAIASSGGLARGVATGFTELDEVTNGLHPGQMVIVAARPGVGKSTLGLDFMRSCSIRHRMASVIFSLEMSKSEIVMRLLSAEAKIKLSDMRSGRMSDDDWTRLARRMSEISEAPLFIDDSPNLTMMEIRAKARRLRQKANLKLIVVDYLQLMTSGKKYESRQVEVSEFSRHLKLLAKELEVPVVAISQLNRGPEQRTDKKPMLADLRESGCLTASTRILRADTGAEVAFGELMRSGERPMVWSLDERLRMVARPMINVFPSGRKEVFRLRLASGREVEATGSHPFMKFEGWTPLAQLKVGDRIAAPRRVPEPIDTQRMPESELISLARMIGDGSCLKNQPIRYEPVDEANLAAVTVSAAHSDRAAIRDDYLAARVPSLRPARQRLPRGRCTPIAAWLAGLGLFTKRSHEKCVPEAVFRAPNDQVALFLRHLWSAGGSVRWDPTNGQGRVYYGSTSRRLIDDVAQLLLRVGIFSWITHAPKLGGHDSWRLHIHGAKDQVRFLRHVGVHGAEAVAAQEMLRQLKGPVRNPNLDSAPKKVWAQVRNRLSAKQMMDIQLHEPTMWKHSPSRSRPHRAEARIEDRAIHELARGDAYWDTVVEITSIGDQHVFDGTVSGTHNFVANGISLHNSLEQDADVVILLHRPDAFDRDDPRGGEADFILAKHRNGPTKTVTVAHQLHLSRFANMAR

[3] = molecular target: T3, Ubiquitin-conjugating enzyme E2 N (Homo sapiens, UniProt P61088); format: functional
T3 sequence (P61088 whole entry): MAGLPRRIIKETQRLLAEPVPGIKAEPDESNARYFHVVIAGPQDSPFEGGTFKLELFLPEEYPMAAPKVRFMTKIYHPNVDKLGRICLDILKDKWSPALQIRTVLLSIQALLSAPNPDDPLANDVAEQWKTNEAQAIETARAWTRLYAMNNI

[4] = control 3'UTR Renilla luciferase suppression, dose response, counter-screen for Shn3 inhibitor project, cell-based, Clone20-Shn3RL, cherry-picked (AID 624133); format: functional
[5] = Intein inhibitors as potential Tuberculosis drugs, a cytotoxicity screen. [Related pubchem assays (depositor defined):AID2221, AID2223, AID434968, AID435010, AID449749, AID449750, AID489010]; format: functional
[6] = molecular target: T3, Ubiquitin-conjugating enzyme E2 N; format: functional; remark: listed apart in the source
Bcl-2-related protein A1 = molecular target: T4, Bcl-2-related protein A1 (Mus musculus, UniProt Q07440); format: functional;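 further: confirmatory dose–response counterscreen on Bfl-1, used to check hits from a UBC13 polyubiquitin inhibitor campaign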
T4 sequence (Q07440 whole entry): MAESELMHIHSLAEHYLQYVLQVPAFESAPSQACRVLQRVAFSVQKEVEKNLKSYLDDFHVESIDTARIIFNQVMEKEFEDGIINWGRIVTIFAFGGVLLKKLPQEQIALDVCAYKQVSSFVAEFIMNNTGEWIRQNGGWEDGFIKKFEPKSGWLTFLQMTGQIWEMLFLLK

Vero = Vero cell cytotoxicity, cytotoxicity control for flavivirus capping enzyme inhibitors (AID 588742); format: functional; details: Chlorocebus sabaeus
[7] = molecular target: Hepatocyte nuclear factor 4-alpha (Homo sapiens, UniProt P41235); format: functional, cell-based;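 further: biochemical luminescence-based dose-response counterscreen measuring inhibition of HNF4 dimerization, run alongside a screen for blockers of ABHD5–perilipin-5 interaction; split luciferase complementation of HNF4 fusion proteins in cell lysate measuring dimerization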
Hepatocyte nuclear factor 4-alpha, sequence (P41235 whole entry, the tested form may be a part): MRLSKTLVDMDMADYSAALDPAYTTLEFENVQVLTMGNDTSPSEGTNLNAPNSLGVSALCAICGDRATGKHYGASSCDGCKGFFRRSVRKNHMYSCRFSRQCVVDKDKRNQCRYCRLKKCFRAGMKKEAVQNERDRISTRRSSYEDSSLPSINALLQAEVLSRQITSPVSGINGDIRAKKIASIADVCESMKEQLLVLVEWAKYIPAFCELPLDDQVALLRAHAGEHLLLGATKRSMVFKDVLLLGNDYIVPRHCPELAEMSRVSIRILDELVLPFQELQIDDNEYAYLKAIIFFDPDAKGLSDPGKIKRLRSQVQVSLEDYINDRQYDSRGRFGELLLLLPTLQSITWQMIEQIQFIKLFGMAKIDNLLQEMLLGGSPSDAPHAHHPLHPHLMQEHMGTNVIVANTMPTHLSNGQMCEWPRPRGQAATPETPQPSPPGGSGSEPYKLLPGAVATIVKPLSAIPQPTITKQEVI

Protein RecA = molecular target: T5, Protein RecA (Mycobacterium tuberculosis, UniProt P9WHJ3); assay: Fluorescence Cell-Free Homogeneous Dose Retest to Identify Inhibitors of RecA-Intein Splicing Activity. [Related pubchem assays (depositor defined):AID2097, AID2223, AID489010, AID492950]; format: functional
T5 sequence (P9WHJ3 whole entry): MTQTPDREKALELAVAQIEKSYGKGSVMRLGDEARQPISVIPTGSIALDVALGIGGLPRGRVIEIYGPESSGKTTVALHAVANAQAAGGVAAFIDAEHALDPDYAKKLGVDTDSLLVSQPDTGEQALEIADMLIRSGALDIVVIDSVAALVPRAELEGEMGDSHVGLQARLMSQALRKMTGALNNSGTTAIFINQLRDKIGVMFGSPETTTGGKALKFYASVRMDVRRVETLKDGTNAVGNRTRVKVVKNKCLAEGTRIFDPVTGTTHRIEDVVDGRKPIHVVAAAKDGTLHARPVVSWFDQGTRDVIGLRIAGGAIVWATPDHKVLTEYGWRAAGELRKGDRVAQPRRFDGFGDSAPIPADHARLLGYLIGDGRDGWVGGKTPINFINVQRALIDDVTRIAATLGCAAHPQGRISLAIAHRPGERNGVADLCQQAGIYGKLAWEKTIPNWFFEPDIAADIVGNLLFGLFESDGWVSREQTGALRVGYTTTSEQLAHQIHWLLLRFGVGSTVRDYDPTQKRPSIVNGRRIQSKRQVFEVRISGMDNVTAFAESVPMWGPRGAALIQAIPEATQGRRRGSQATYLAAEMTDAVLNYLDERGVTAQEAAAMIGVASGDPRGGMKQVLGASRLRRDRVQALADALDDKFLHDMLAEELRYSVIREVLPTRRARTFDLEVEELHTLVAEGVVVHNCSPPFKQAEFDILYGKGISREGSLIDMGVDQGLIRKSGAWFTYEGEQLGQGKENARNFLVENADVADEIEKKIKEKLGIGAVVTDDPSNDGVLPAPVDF

[8] = molecular target: Voltage-dependent T-type calcium channel subunit alpha-1H (Homo sapiens, UniProt O95180); assay: Cav3.2 T-type channel inhibitors, synthesized analogs, SAR follow-up, cell-based, synthetic library set 2, HEK293 HH8, Fluo-4 (AID 493023); format: functional
Voltage-dependent T-type calcium channel subunit alpha-1H, sequence (O95180 whole entry): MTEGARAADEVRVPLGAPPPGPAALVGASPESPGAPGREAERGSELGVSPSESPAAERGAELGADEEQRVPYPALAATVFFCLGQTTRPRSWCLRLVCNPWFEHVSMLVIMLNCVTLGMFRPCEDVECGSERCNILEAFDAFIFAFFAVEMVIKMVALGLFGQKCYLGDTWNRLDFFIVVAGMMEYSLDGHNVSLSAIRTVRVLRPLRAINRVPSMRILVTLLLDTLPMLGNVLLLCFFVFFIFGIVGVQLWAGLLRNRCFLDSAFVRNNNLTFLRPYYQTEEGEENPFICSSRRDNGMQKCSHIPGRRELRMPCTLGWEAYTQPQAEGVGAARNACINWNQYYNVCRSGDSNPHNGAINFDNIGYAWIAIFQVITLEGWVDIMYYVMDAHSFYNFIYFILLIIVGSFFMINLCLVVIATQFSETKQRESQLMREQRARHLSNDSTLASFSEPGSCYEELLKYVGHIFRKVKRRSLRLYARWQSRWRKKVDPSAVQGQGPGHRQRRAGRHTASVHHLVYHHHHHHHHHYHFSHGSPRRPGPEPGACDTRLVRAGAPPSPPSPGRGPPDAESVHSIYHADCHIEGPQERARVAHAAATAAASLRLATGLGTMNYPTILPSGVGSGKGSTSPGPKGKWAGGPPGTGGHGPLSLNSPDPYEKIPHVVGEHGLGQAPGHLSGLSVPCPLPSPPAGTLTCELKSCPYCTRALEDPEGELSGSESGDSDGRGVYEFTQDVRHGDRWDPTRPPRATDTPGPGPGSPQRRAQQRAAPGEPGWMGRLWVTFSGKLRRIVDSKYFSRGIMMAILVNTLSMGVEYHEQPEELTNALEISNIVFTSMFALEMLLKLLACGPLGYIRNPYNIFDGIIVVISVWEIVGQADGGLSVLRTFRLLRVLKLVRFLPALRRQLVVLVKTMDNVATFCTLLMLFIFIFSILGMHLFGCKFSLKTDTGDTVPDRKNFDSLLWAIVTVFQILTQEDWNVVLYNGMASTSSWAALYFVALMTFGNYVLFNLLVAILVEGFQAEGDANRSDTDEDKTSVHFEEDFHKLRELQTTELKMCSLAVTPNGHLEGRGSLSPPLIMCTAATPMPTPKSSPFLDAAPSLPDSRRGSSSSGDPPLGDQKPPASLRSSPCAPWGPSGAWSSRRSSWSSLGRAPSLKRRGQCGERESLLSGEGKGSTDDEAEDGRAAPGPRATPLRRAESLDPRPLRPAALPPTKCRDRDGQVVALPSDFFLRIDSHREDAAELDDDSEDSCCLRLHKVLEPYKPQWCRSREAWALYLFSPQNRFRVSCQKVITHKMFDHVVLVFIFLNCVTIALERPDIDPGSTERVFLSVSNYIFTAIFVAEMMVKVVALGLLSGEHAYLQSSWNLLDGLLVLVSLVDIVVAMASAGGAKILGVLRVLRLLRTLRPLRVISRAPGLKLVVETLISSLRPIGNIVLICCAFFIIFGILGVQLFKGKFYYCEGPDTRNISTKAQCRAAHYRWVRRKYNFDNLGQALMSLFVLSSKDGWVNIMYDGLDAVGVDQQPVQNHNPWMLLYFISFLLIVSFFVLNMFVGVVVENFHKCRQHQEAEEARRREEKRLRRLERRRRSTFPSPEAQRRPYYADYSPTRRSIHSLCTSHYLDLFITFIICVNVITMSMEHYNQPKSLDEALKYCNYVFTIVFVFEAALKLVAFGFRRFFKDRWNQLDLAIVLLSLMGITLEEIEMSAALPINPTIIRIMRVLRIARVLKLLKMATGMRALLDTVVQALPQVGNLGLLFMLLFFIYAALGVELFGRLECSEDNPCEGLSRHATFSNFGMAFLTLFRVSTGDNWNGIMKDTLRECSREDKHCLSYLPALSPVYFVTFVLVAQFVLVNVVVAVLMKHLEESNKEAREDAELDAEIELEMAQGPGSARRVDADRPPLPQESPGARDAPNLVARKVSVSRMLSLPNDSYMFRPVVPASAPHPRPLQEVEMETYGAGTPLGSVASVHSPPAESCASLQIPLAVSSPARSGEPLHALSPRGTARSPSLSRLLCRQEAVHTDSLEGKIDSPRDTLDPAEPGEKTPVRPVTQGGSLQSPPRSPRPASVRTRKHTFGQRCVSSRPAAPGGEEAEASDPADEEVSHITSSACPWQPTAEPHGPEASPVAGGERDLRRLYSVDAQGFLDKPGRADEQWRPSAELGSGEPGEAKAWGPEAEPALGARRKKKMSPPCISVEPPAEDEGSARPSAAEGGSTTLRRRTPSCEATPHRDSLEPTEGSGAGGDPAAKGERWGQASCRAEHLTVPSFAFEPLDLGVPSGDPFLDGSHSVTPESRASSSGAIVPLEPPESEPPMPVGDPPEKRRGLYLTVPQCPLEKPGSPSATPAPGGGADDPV

[9] = inhibitors of intracellular T. cruzi replication, confirmation, NIH3T3 host cells, beta-gal luminescence (AID 2044); format: functional, cell-based;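 further: intracellular parasites grown in NIH/3T3 mouse fibroblasts as host cells; luminescent beta-galactosidase reporter signal from transgenic T. cruzi replicating inside host cells; inhibitors lower the luminescence signal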
HEK293 [10] = assay: cells; details: Homo sapiens
[11] = molecular target: T6, Heat shock factor protein 1 (Mus musculus, UniProt P38532); assay: HSF1 potentiators in luciferase reporter cells, confirmation, cell-based, NIH3T3, luminescence, dose retest (AID 435004); format: functional;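 further: stress induced by proteasome inhibitor MG132 added 30 min after compound; luciferase reporter driven by HSF1 response element in NIH3T3 cells; actives raise luminescence as potentiators of the MG132 stress response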
T6 sequence (P38532 whole entry): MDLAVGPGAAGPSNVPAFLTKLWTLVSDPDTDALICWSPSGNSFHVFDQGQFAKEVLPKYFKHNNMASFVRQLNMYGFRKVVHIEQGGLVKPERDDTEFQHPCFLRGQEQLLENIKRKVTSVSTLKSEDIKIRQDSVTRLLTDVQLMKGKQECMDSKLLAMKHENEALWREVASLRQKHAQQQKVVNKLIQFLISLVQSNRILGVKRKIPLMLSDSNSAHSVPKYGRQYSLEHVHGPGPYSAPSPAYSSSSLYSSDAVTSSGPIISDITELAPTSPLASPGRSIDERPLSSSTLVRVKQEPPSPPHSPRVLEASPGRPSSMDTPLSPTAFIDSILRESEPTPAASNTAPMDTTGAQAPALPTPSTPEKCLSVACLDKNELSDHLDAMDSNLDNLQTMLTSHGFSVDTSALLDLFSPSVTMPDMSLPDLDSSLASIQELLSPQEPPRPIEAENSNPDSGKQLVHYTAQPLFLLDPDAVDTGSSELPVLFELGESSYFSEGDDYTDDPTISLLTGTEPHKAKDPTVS

Hexokinase HKDC1 = molecular target: T7, Hexokinase HKDC1 (Homo sapiens, UniProt Q2TB90); assay: HKDC1 hexokinase activators, dose response, biochemical, W721R variant (AID 504730); format: functional
T7 sequence (Q2TB90 whole entry): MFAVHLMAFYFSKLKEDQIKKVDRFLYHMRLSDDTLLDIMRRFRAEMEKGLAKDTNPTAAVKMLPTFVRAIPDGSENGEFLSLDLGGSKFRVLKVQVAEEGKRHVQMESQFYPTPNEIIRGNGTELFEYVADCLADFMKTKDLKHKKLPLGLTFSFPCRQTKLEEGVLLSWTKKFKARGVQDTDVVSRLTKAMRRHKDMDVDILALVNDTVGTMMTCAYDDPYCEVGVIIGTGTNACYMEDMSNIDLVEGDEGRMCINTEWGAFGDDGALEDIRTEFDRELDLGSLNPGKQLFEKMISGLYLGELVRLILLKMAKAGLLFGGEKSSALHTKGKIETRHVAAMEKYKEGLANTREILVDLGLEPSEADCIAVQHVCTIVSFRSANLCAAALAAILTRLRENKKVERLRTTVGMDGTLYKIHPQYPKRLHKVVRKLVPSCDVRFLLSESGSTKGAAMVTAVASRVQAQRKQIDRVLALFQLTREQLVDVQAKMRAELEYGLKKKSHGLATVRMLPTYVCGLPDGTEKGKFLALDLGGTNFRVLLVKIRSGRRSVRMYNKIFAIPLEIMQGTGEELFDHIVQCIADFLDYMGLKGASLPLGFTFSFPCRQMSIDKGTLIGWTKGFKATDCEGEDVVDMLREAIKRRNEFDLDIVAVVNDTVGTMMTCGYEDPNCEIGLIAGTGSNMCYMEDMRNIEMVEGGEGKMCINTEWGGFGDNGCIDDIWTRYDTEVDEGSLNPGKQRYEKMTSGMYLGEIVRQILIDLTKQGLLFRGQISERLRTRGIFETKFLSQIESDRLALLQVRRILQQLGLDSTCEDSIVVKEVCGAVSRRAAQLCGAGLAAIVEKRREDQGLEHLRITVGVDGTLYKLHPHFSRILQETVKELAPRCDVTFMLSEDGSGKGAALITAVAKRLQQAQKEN

[12] = molecular target: Peroxisome proliferator-activated receptor gamma/Nuclear receptor coactivator 3 (Homo sapiens, UniProt P37231); format: functional;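 further: agonist potency for raising coactivator recruitment to the receptor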
Peroxisome proliferator-activated receptor gamma/Nuclear receptor coactivator 3, sequence (P37231 whole entry): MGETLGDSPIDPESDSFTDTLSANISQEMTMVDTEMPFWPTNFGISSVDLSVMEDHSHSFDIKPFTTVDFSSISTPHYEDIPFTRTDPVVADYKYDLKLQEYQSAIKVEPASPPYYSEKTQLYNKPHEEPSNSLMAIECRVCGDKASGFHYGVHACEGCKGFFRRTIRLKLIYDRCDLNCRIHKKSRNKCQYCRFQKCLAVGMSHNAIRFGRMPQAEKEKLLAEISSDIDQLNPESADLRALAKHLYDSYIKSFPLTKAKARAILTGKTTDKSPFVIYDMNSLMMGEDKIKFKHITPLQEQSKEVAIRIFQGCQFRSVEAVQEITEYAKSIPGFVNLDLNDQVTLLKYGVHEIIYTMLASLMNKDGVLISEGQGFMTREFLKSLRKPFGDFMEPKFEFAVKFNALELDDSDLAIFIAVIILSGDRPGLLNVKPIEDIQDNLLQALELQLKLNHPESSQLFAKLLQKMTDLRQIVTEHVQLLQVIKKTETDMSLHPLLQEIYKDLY
Peroxisome proliferator-activated receptor gamma/Nuclear receptor coactivator 3, sequence (Q9Y6Q9 whole entry, further chain): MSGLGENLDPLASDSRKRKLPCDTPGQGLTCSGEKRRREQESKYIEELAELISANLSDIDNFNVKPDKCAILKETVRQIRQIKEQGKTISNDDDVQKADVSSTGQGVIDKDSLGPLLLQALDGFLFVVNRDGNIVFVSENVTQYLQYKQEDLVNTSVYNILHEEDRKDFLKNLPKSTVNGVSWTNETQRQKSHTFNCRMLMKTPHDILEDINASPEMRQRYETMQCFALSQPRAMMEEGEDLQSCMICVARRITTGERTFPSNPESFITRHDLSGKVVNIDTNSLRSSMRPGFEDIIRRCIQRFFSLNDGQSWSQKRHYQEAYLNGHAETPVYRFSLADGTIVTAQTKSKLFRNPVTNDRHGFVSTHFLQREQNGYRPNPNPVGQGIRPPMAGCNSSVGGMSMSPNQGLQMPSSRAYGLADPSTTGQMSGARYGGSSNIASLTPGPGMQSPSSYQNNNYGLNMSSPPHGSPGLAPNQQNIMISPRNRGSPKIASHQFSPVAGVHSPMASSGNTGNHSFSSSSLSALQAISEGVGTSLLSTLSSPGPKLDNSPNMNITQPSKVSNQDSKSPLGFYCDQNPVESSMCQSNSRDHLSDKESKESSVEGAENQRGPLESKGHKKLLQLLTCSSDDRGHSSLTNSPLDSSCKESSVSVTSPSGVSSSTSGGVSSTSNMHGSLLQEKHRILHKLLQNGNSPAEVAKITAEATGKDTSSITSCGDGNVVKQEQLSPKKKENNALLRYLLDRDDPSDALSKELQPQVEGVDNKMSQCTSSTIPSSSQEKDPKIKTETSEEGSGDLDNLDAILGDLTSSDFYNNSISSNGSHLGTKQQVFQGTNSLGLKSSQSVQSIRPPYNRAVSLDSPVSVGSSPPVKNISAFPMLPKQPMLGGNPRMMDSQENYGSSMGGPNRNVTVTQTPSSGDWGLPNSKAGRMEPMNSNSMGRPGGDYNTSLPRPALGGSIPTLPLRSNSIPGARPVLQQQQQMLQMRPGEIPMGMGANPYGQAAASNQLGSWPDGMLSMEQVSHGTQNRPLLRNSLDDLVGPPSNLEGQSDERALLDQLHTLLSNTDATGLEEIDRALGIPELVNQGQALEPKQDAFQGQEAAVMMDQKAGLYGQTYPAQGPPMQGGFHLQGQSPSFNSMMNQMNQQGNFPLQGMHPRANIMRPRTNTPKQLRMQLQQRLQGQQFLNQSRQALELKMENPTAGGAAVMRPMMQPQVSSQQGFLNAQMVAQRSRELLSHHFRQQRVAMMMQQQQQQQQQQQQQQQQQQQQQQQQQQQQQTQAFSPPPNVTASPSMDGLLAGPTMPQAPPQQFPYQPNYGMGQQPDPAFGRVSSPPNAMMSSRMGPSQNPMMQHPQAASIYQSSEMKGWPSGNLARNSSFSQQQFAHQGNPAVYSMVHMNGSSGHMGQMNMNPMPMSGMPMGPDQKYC

Hexokinase-1 = Hexokinase-1 (Homo sapiens, UniProt P19367); assay: hexokinase 1 activators, dose response, selectivity assay for HKDC1 activator project, biochemical (AID 504762); format: functional
HEK293 [13] = assay: cells; details: Homo sapiens; remark: listed apart in the source
[14] = molecular target: Peroxisome proliferator-activated receptor gamma/Nuclear receptor coactivator 2 (Homo sapiens, UniProt P37231); format: functional;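 further: agonist potency for raising coactivator recruitment to the receptor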
[15] = molecular target: Peroxisome proliferator-activated receptor gamma/Nuclear receptor coactivator 1 (Homo sapiens, UniProt P37231); format: functional;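 further: agonist potency as compounds enhance coactivator SRC-1 recruitment to PPARgamma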

Q: With `COC(=O)[C@H](C)NC(=O)NC(C)CCc1ccccc1` (some centres not stated) as the compound, how does the IC50 (Coagulation factor XII) read?
A: > 50 µM (inactive)

Q: Which results are given for `Cc1ccc(CS(=O)(=O)c2ncc(Cl)c(C(=O)Nc3nnc(C(C)C)s3)n2)cc1`?
A: AC50 [1]: 1.52 µM (active); IC50 (Genome polyprotein): > 100 µM (active); AC50 [2]: 2.95 µM (active); IC50 [3]: > 20 µM (inactive); AC50 [4]: 4.07 µM (active); CC50 [5]: 28.3 µM (active); IC50 [6]: 10.7 µM (active); IC50 (Bcl-2-related protein A1): > 20 µM (inactive); CC50 (Vero): 29.1 µM (active); IC50 [7]: 3.27 µM (active); EC50 (Protein RecA): 0.717 µM (active)

Q: With `O=C(NC1CCC2CN(Cc3ccccc3)CC21)c1ccc(Cl)cc1Cl` (configuration not stated) as the compound, how does the EC50 [8] read?
A: 10 µM (active)

Q: For `O=C(CSc1cccc2cccnc12)N/N=C/c1cccnc1`, which EC50 [9] is on record?
A: 0.579 µM (active)

Q: And the EC50 (HEK293 [10])?
A: > 59.6 µM (inactive)

Q: What about the EC50 [11] of the same compound?
A: 6.99 µM (active)

Q: And the EC50 (Hexokinase HKDC1)?
A: 27.6 µM (inactive)

Q: What about the EC50 [12] of the same compound?
A: > 79.4 µM (not active)

Q: What about the EC50 (Hexokinase-1) of the same compound?
A: > 80 µM (inactive)

Q: And the EC50 (HEK293 [13])?
A: > 59.6 µM (inactive)

Q: And the EC50 [14]?
A: > 79.4 µM (not active)

Q: And the EC50 [15]?
A: > 79.4 µM (not active)
